Experimental data published in publication PMC5729604, “Dual inhibitors of hepatitis C virus and hepatocellular carcinoma: design, synthesis and docking studies” (Future Science OA, 2017).
“Also recorded” adds a separate entry of the source.

How the values were obtained:
In vitro hemolytic assay = assay type: cell-based; conditions: 2% erythrocyte suspension (washed red blood cells); 2% erythrocyte suspension, 3 μl of 1 mg/ml compound in DMF per 240 μl well, 37°C 30 min, absorbance 405 nm; <5% considered nontoxic
Method: Compounds 5a-x and 6a-h were subjected to the in vitro hemolytic assay to identify those which cause hemolysis to red blood cells (RBCs). Consequently, these compounds would be toxic in vivo so they were excluded from further biological screening.
Blood samples (5 ml) were freshly collected into heparinized tubes and were centrifuged (1000 r.p.m. for 20 min) at room temperature. The plasma and buffy coat were removed by Pasteur pipette, and the collected erythrocytes were washed three-times using isotonic buffer solution (0.9% sodium chloride [Sigma-Aldrich, MO, USA]) by centrifugation (2500 r.p.m. for 10 min). A two percent erythrocyte suspension was prepared to be used in the assay.
A 1 mg/ml stock solution of each compound was prepared in DMF (Sigma-Aldrich). Compound wells were prepared by adding 3 μl of the compound solution to 117 μl isotonic buffer solution and 120 μl erythrocyte suspension. Compounds color blank wells were prepared by adding 3 μl compound to 237 μl isotonic buffer solution. Solvent (DMF) wells were prepared by adding 3 μl DMF to 117 μl isotonic buffer solution and 120 μl erythrocyte suspension. Positive control wells (representing 100% hemolysis) were prepared by adding 120 μl erythrocyte suspension to 120 μl distilled water, while negative control wells (representing 0% hemolysis) were prepared by adding 120 μl erythrocyte suspension to 120 μl isotonic buffer solution. Finally, blank wells contained only 240 μl isotonic buffer solution. Each set of samples was pipetted in triplicate. The microtiter plate was then shaken well on bench, incubated at 37°C for 30 min then centrifuged (2000 rpm for 5 min) at room temperature.
A fraction of the supernatant layer (150 μl) of each well was transferred to another 96-well microtiter plate. Erythrocyte hemolysis was determined by reading the absorbance (A) of liberated hemoglobin at 405 nm in the supernatant fraction compared with the 100% hemolysis of erythrocyte. The average value was calculated from triplicate assay: [drawing 2]

[1] = tested on: HepG2 cells infected with hepatitis C virus; assay: In vitro anti-HCV screening, qualitative RT-PCR of viral RNA; assay type: cell-based, HCV genotype-4; conditions: for in vitro anti-HCV activity, in words: HCV-infected HepG2 cells, RT-PCR; for Result (anti-HCV screening): at the used dose (below LD0 on HepG2 and PBMCs), 72 h, Positive = disappearance of viral RNA-amplified product (174 bp)
Description: The safe compounds on RBCs (5a-g, 5i-l, 5p-r, 5v-w, 6b-g) were screened for their in vitro anti-HCV activity using the HCC HepG2 cell line infected with the HCV. Monitoring of the HCV viremia pre- and post-antiviral therapy through the detection of viral RNA using qualitative reverse transcription-PCR (RT-PCR) was adopted in the present investigation. This technique was reported to be the most frequently used, reliable and sensitive technique. Inhibition of viral replication was detected by amplification of viral RNA segments by the RT-PCR technique both in the cultivated infected cells alone (as a positive control) and at the specified dose for each test compound at optimal temperature. The test compound was considered to be active when it can inhibit the viral replication inside the HCV-infected HepG2 cells, as evidenced by the disappearance of the viral RNA-amplified products detected by the RT-PCR (compared with positive control).
The used concentration of each compound was chosen to be lower than the LD0 on HepG2 cells. Therefore, 100% viability of HepG2 cells was maintained, to make sure that any inhibitory effect was due to anti-HCV activity rather than cytotoxic activity on HepG2 cells. Moreover, the used concentrations were also chosen to be lower than the LD0 on PBMCs. Consequently, these doses could be used for inhibition of HCV in normal cells infected with the virus.
HepG2 cells were washed twice in RPMI-1640 medium supplemented with 200 μM L-glutamine and […] HEPES buffer. The cells were suspended at 12 × 10^4 cells/ml in RPMI culture medium (RPMI supplemented medium and 10% FBS). The appropriate number of cells to be used was chosen to be 12 × 10^3 cells/well (100 μl of the prepared suspension), and the cells were left to adhere on the polystyrene […] plates in an incubator at 37°C, 5% CO2 and 95% humidity for 24 h. The cells were washed once using RPMI supplemented medium, then infected with 2% HCV-infected serum (the used serum was a pole of ten patients infected with HCV genotype-4 with viral loads: 3.2–9 million IU/ml, G4 HCV RNA) in RPMI culture medium containing 8% FBS. The used dose of each compound was chosen so as to maintain 100% viability of the HepG2 cell line (the dose was lower than the LD0 of each compound on HepG2 cells as calculated from the in vitro anticancer screening). It was reported that, cultured HepG2 cells lost their biotransformation activity due to decrease in cytochrome (CYP) transcription. This waived its effect on the compounds stability during the test. Negative control is HepG2 cells with culture medium without addition of HCV infected serum or addition of tested compounds. Positive control is HepG2 cells with culture medium and infected HCV serum but without addition of tested compounds. After addition of the compounds, the plates were incubated at 37°C, 5% CO2 and 95% humidity for 72 h, followed by RNA extraction. The RNA strand was detected by RT-PCR using HCV-specific primers to the […] region of the virus.
RNA was extracted from HepG2 cells using the method described by El-Awady et al.. Culture cells were mixed with 200 μl of 4 mol/l guanidinium isothiocyanate (Fischer Bioreagents) containing 25 mmol/l sodium citrate (MP Biomedicals, CA, USA), 0.5% sarkosyl (Fischer Bioreagents), 0.1 mol/l β-mercaptoethanol (MP Biomedicals), and 100 μl sodium acetate (Merck). The lysed cells were mixed with an equal volume of phenol, chloroform and isoamyl alcohol (25:24:1, pH 4; Fischer Bioreagents). After vortexing, the mixture was centrifuged (14,000 r.p.m. for 10 min) at 4°C. The aqueous layer was collected and mixed with an equal volume of isopropanol (Acros Organics, Geel, Belgium). After incubation at -20°C overnight, RNA was precipitated by centrifugation (14,000 r.p.m. for 30 min) at 4°C, and the precipitated RNA was washed twice with 70% ethanol. […]

Row | SMILES | hemolysis at 30 min, 12.5 µg/ml (In vitro hemolytic assay) [%] | in vitro anti-HCV activity, in words [1] | Result (anti-HCV screening) [1]
1 | CC(=NN=C1SC(=Cc2cn(-c3ccccc3)nc2-c2ccccc2)C(=O)N1c1ccccc1)c1cc2ccccc2o1 [Compound 5a, 2-[1-(Benzofuran-2-yl)ethylidenehydrazono]-5-[(1,3-Diphenyl-1H-pyrazol-4-yl)methylene]-3-phenylthiazolidin-4-one] | 3.27 | showed in vitro anti-HCV activity; also recorded: exhibited in vitro anti-HCV activity | Positive
2 | CC(=NN=C1SC(=Cc2cn(-c3ccccc3)nc2-c2ccc(Cl)cc2)C(=O)N1c1ccccc1)c1cc2ccccc2o1 [Compound 5b, 2-[1-(Benzofuran-2-yl)ethylidenehydrazono]-5-{[3-(4-chlorophenyl)-1-phenyl-1H-pyrazol-4-yl]methylene}-3-phenylthiazolidin-4-one] | 4.22 | – | Negative
3 | COc1ccc(-c2nn(-c3ccccc3)cc2C=C2SC(=NN=C(C)c3cc4ccccc4o3)N(c3ccccc3)C2=O)cc1 [Compound 5c, 2-[1-(Benzofuran-2-yl)ethylidenehydrazono]-5-{[3-(4-methoxyphenyl)-1-phenyl-1H-pyrazol-4-yl]methylene}-3-phenylthiazolidin-4-one] | 1.65 | – | Negative
4 | CC(=NN=C1SC(=Cc2cn(-c3ccccc3)nc2-c2ccccc2)C(=O)N1c1ccc(Cl)cc1)c1cc2ccccc2o1 [Compound 5d, 2-[1-(Benzofuran-2-yl)ethylidenehydrazono]-5-[(1,3-Diphenyl-1H-pyrazol-4-yl)methylene]-3-(4-chlorophenyl)thiazolidin-4-one] | 1.05 | – | Negative
5 | CC(=NN=C1SC(=Cc2cn(-c3ccccc3)nc2-c2ccc(Cl)cc2)C(=O)N1c1ccc(Cl)cc1)c1cc2ccccc2o1 [Compound 5e, 2-[1-(Benzofuran-2-yl)ethylidenehydrazono]-5-{[3-(4-chlorophenyl)-1-phenyl-1H-pyrazol-4-yl]methylene}-3-(4-chlorophenyl)thiazolidin-4-one] | 3.82 | – | Negative
6 | COc1ccc(-c2nn(-c3ccccc3)cc2C=C2SC(=NN=C(C)c3cc4ccccc4o3)N(c3ccc(Cl)cc3)C2=O)cc1 [Compound 5f, 2-[1-(Benzofuran-2-yl)ethylidenehydrazono]-5-{[3-(4-methoxyphenyl)-1-phenyl-1H-pyrazol-4-yl]methylene}-3-(4-chlorophenyl)thiazolidin-4-one] | 4.59 | – | Negative
7 | COc1ccc(N2C(=O)C(=Cc3cn(-c4ccccc4)nc3-c3ccccc3)SC2=NN=C(C)c2cc3ccccc3o2)cc1 [Compound 5g, 2-[1-(Benzofuran-2-yl)ethylidenehydrazono]-5-[(1,3-Diphenyl-1H-pyrazol-4-yl)methylene]-3-(4-methoxyphenyl)thiazolidin-4-one] | 2.03 | – | Negative
8 | COc1ccc(-c2nn(-c3ccccc3)cc2C=C2SC(=NN=C(C)c3cc4ccccc4o3)N(c3ccc(OC)cc3)C2=O)cc1 [Compound 5i, 2-[1-(Benzofuran-2-yl)ethylidenehydrazono]-5-{[3-(4-methoxyphenyl)-1-phenyl-1H-pyrazol-4-yl]methylene}-3-(4-methoxyphenyl)thiazolidin-4-one] | 2.97 | – | Negative
9 | CC(=NN=C1SC(=Cc2cn(-c3ccccc3)nc2-c2ccccc2)C(=O)N1C1CCCCC1)c1cc2ccccc2o1 [Compound 5j, 2-[1-(Benzofuran-2-yl)ethylidenehydrazono]-5-[(1,3-Diphenyl-1H-pyrazol-4-yl)methylene]-3-cyclohexylthiazolidin-4-one] | 3.01 | – | Negative
10 | CC(=NN=C1SC(=Cc2cn(-c3ccccc3)nc2-c2ccc(Cl)cc2)C(=O)N1C1CCCCC1)c1cc2ccccc2o1 [Compound 5k, 2-[1-(Benzofuran-2-yl)ethylidenehydrazono]-5-{[3-(4-chlorophenyl)-1-phenyl-1H-pyrazol-4-yl]methylene}-3-cyclohexylthiazolidin-4-one] | 4.44 | – | Negative
11 | COc1ccc(-c2nn(-c3ccccc3)cc2C=C2SC(=NN=C(C)c3cc4ccccc4o3)N(C3CCCCC3)C2=O)cc1 [Compound 5l, 2-[1-(Benzofuran-2-yl)ethylidenehydrazono]-5-{[3-(4-methoxyphenyl)-1-phenyl-1H-pyrazol-4-yl]methylene}-3-cyclohexylthiazolidin-4-one] | 2.89 | showed in vitro anti-HCV activity; also recorded: exhibited in vitro anti-HCV activity | Positive
12 | CC(=NN=C1SC(=Cc2cn(-c3ccccc3)nc2-c2ccccc2)C(=O)N1c1ccc(Cl)cc1)c1nc2ccccc2[nH]1 [Compound 5p, 2-[1-(1H-Benzimidazole-2-yl)ethylidenehydrazono]-5-[(1,3-Diphenyl-1H-pyrazol-4-yl)methylene]-3-(4-chlorophenyl)thiazolidin-4-one] | 4.62 | showed in vitro anti-HCV activity; also recorded: exhibited in vitro anti-HCV activity | Positive
13 | CC(=NN=C1SC(=Cc2cn(-c3ccccc3)nc2-c2ccc(Cl)cc2)C(=O)N1c1ccc(Cl)cc1)c1nc2ccccc2[nH]1 [Compound 5q, 2-[1-(1H-Benzimidazole-2-yl)ethylidenehydrazono]-5-{[3-(4-chlorophenyl)-1-phenyl-1H-pyrazol-4-yl]methylene}-3-(4-chlorophenyl)thiazolidin-4-one] | 3.49 | – | Negative
14 | COc1ccc(-c2nn(-c3ccccc3)cc2C=C2SC(=NN=C(C)c3nc4ccccc4[nH]3)N(c3ccc(Cl)cc3)C2=O)cc1 [Compound 5r, 2-[1-(1H-Benzimidazole-2-yl)ethylidenehydrazono]-5-{[3-(4-methoxyphenyl)-1-phenyl-1H-pyrazol-4-yl]methylene}-3-(4-chlorophenyl)thiazolidin-4-one] | 1.87 | – | Negative
